What was measured:
[1] = test system: polycystic human cholangiocytes; assay: Metalloproteolytic activity of culture supernatants, ES001 fluorogenic peptide cleavage; assay type: cell-based; conditions: for metalloproteolytic activity in presence of stimulus: polycystic cholangiocytes vs basal, Table 3 final concentration: IL-6, IL-8 50 ng/ml, 17β-estradiol 1 nM/ml, VEGF, EGF, ENA-78, GRO-α 10 ng/ml, HGF 20 ng/ml, FIG. 9
Procedure: (§1) Metalloproteolytic or metalloprotease activity was measured in supernatants of cultures of normal human cholangiocytes and polycystic human cholangiocytes by an assay based on the cleavage of the ES001 fluorogenic synthetic peptide (R&D Systems Minneapolis, Minn., USA) that emits fluorescence proportional to metalloproteolytic activity. The substrate Mca-Pro-Leu-Gly-Leu-Dpa-Ala-Arg-NH2 [Mca: (7-Methoxycoumarin-4-yl)acetyl, Dpa: N-3-(2,4-Dinitrophenyl)-L-2,3-diaminopropionyl] (Knight C G, et al. FEBS Letters 1992; 296:263) is lysed between glycine and leucine by the action of the MMPs, especially MMP-1 (collagenase 1), MMP-2 (gelatinase A), MMP-7 (matrilysin), MMP-8 (collagenase 2), MMP-9 (gelatinase B), MMP-12 (macrophage elastase), MMP-13 (collagenase 3), MMP-14 (MT1-MMP), MMP-15 (MT2-MMP) and MMP-16 (MT3-MMP).
(§2) The basal metalloproteolytic activity of normal human cholangiocyte and polycystic human cholangiocytes cultures was determined by trypsinising the contents of 250 ml flasks and counting the number of cells in an inverted optical microscope using a Neubauer camera and a ½ dilution of the cell solution with trypan blue (Sigma). Next, 300,000 cells were seeded in each well of a 6-well plate and incubated with enriched DMEM/F-12 medium for 24 hours. After this time, the cells were washed with PBS and the culture medium changed for 2 ml of quiescent medium (DMEM/F-12, 1% FBS and 1% P/S) and incubated for 6 hours at 37° C./5% CO2. The supernatant was collected from each well and centrifuged at 4° C. for 10 minutes at 1,500 rpm to remove the dead cells present in the supernatant. The supernatant was concentrated 50 times using a 15 kDa (Millipore) Amicon Ultra concentrator. Next the concentrated supernatant was incubated for 2 hours at 37° C. with the ES001 fluorogenic peptide at a final concentration of 10 μM. Also, GM6001 (a global MMP inhibitor) and aprotinin (a global inhibitor of serine proteases) (both from Sigma-Aldrich) were used as controls of the specificity of the analysis of MMP activity in the assay. Recombinant MMP-10 (kindly provided by Dr. José Antonio Rodriguez Garcia, Laboratorio de Ateroesclerosis e Inflamación del CIMA, Universidad de Navarra) was used as a positive control and DMEM/F-12 medium without serum was used as the negative control. The fluorescence determination was kinetically measured in a Spectra MAX GeminiXS (Molecular Devices Sunnyvale, Calif., USA) spectrophotometer at excitation-emission wavelengths of 320-405 nm. The fluorescence intensity emitted by the culture medium was extracted from the metalloproteolytic activity values. The metalloproteolytic activity was calculated from the tangent to the curve of the fluorescence values using at least six different points over time for each type of cell and condition.
(§3) To analyse the effect of various stimuli on the metalloproteolytic activity of normal and polycystic human cholangiocytes cultures, a protocol similar to that described before in Example 2 was followed, but in this case the incubation of the cells was with quiescent medium (i.e. DMEM/F12, […]) in the presence of the corresponding stimulus (Table 3). Next, the same procedure as described for the analysis of basal metalloproteolytic activity was followed as described in Example 2.
(§4) Taking into account that: i) basal activity of polycystic human cholangiocytes in culture is greater than that of normal human cholangiocytes and ii) that IL-6 and IL-8 increased the metalloproteolytic activity of normal and polycystic human cholangiocytes, the role of these two cytokines on metalloproteolytic hyperactivity of polycystic human cholangiocytes using antibodies against the receptors of IL-6 (IL6R) and/or IL-8 (CXCR1) was investigated. […]

[2] = test system: normal human cholangiocytes; assay: as above; assay type: cell-based; conditions: for metalloproteolytic activity in presence of stimulus: normal cholangiocytes vs basal, Table 3 final concentration: IL-6, IL-8 50 ng/ml, 17β-estradiol 1 nM/ml, VEGF, EGF, ENA-78, GRO-α 10 ng/ml, HGF 20 ng/ml, FIG. 9
Procedure: as §1, §2, §3, §4

In the case of VEGF, the “metalloproteolytic activity in presence of stimulus” value [1] was “did not induce any change” and the “metalloproteolytic activity in presence of stimulus” value [2] was “did not induce any change”.

For GROα: growth-regulated oncogene a, the “metalloproteolytic activity in presence of stimulus” value [1] was “did not induce any change” and the “metalloproteolytic activity in presence of stimulus” value [2] was “did not induce any change”.

`CC1=C(/C=C/C(C)=C/C=C/C(C)=C\C(=O)O)C(C)(C)CCC1` [13-cis-retinoic acid] was tested, and the “basal metalloproteolytic activity in presence of inhibitor” value ([1]; polycystic cholangiocytes, 13-cis-retinoic acid 10 μM/ml or Marimastat 200 μM/ml, p<0.01, FIG. 21) was “inhibited” and the “basal metalloproteolytic activity in presence of inhibitor” value ([2]; normal cholangiocytes, 13-cis-retinoic acid 10 μM/ml or Marimastat 200 μM/ml, p<0.01, FIG. 21) was “inhibited”.

In the case of EGF: epidermal growth factor, the “metalloproteolytic activity in presence of stimulus” value [1] was “did not induce any change” and the “metalloproteolytic activity in presence of stimulus” value [2] was “did not induce any change”.

With HGF: hepatocyte growth factor the “metalloproteolytic activity in presence of stimulus” value [1] was “did not induce any change” and the “metalloproteolytic activity in presence of stimulus” value [2] was “did not induce any change”.

For “ENA-78: epithelial neutrophil-activating peptide 78”, the “metalloproteolytic activity in presence of stimulus” value [1] was “did not induce any change” and the “metalloproteolytic activity in presence of stimulus” value [2] was “did not induce any change”.
